Measurements: patent publication US6987092B1, “Indigoid bisindole derivatives” (Faustus Forschungs Cie. Translational Cancer Research GmbH, priority 1999, dated 2006)

What was measured:
Format in all cases: cell-based
[1] = system: cells of the mammary carcinoma cell line MCF-7; test: Tumor cell growth inhibition, SRB-assay, MCF-7; conditions: 50% growth inhibition, three days incubation in serum-containing medium
[2] = system: LXFL-529L cells; test: Cellular uptake by LXFL-529L cells; conditions: 2 hours; for distribution particular: cellular organelles
Protocol: The amounts of the substances which were taken up by the cells are given depending on the concentration of the substance within the incubation medium. The time of incubation was 2 hours in all of the experiments. Furthermore, distribution between cytosol and the cellular organelles (particular) was measured and is given in the last two columns of Table 3.

[3] = system: cells of the large-cell lung carcinoma of the tumor line LXFL-529L; test: Tumor cell growth inhibition, SRB-assay, LXFL-529L; conditions: 50% growth inhibition, three days incubation in serum-containing medium
[4] = concentration of incubation 10 μM
[5] = concentration of incubation 20 μM
[6] = concentration of incubation 50 μM

| Compound | IC50 [1] | distribution particular [2, 4] | distribution particular [2, 5] | amount taken up [2, 4] | distribution cytosol [2, 4] | amount taken up [2, 5] | distribution cytosol [2, 5] | IC50 [3] | distribution particular [2, 6] | amount taken up [2, 6] | distribution cytosol [2, 6] |
| --- | --- | --- | --- | --- | --- | --- | --- | --- | --- | --- | --- |
| CCc1ccc2c(c1)/C(=C1/Nc3ccccc3C1=O)C(=O)N2 [Example 2, 5-ethyl-indirubin] | 7 ± 0.2 µM | 90 ± 6% | 95 ± 3% | 0.20 ± 0.05 μg/mg protein | 10 ± 2% | 0.22 ± 0.07 μg/mg protein | 5 ± 2% | 7 ± 0.2 µM | – | – | – |
| O=C1Nc2ccccc2C1=C1Nc2ccccc2C1=NOCCO [Example 31] | 2.5 ± 0.4 µM | 93 ± 7% | 93 ± 6% | 0.27 ± 0.06 μg/mg protein | 7 ± 1% | 0.31 ± 0.07 μg/mg protein | 7 ± 2% | 1.5 ± 0.4 µM | – | – | – |
| CCOP(=O)(Cc1ccc2c(c1)C(=C1Nc3ccccc3C1=O)C(=O)N2)OCC [Example 14, diethyl-{[3-(3′-oxo-(2′H3′H)indol-2′-ylidene)-(2H3H)indol-2-one-5-yl]-methyl}-phosphonate] | 6 ± 1.1 µM | – | – | – | – | – | – | 6.5 ± 1.2 µM | – | – | – |
| COC(=O)CNS(=O)(=O)c1ccc2c(c1)C(=C1Nc3ccccc3C1=O)C(=O)N2 [Example 24, methyl-2-{[3-(3′-oxo-(2′H3′H)indol-2′-ylidene)-(2H3H)indol-2-one-5-yl]-sulfonylamino}-acetate] | 25 ± 0.9 µM | – | – | – | – | – | – | 16 ± 0.8 µM | – | – | – |
| O=C1Nc2ccccc2C1=C1Nc2ccccc2C1=NOCCCCCCCCCCN(CCO)CCO [Example 62] | 13.5 ± 1.3 µM | – | – | – | – | – | – | 14 ± 1 µM | – | – | – |
| O=C1Nc2ccccc2C1=C1Nc2ccccc2C1=NOCCN[C@H]1C(O)O[C@H](CO)[C@@H](O)[C@@H]1O (some centres unmarked) [Example 56, 3-{3′-[iminooxy-O-(N-(2-deoxy-glucose)-2-amino-ethyl)]-(2′H3′H)indol-2′-ylidene}-(2H3H)indol-2-one] | 14 ± 1.2 µM | – | – | – | – | – | – | 12 ± 1.3 µM | – | – | – |
| CN(C)C(=O)CON=C1C(=C2C(=O)Nc3ccccc32)Nc2ccccc21 [Example 43, N,N-dimethyl-2{O-[2′-(2-oxo-(2H3H)indol-3-ylidene)-(2′H3′H)indol-3′-ylidene]-aminooxy}-acetamide] | 9.2 ± 0.9 µM | – | – | – | – | – | – | 7 ± 1.1 µM | – | – | – |
| CCOC(=O)CON=C1C(=C2C(=O)Nc3ccccc32)Nc2ccccc21 [Example 40, ethyl-2{O-[2′-(2-oxo-(2H3H)indol-3-ylidene)-(2′H3′H)indol-3′-ylidene]-aminooxy}-acetate] | 10 ± 0.7 µM | – | – | – | – | – | – | 6 ± 0.4 µM | – | – | – |

Other lines, results leading:

| IC50 [1] | distribution particular [2, 4] | distribution particular [2, 5] | amount taken up [2, 4] | distribution cytosol [2, 4] | amount taken up [2, 5] | distribution cytosol [2, 5] | IC50 [3] | distribution particular [2, 6] | amount taken up [2, 6] | distribution cytosol [2, 6] | Compound |
| --- | --- | --- | --- | --- | --- | --- | --- | --- | --- | --- | --- |
| 7 ± 0.9 µM | 82 ± 6% | 89 ± 5% | 0.10 ± 0.03 μg/mg protein | 18 ± 3% | 0.13 ± 0.05 μg/mg protein | 11 ± 3% | 6 ± 0.6 µM | – | – | – | CCc1ccc2c(c1)C(=C1Nc3ccccc3C1=NO)C(=O)N2 [Example 26, 5-ethyl-indirubin-3′-monooxime] |
| 5 ± 0.8 µM | 90 ± 6% | 94 ± 5% | 0.20 ± 0.06 μg/mg protein | 10 ± 2% | 0.23 ± 0.05 μg/mg protein | 90 ± 6% | 7.5 ± 0.4 µM | – | – | – | Nc1ccc2c(c1)C(=C1Nc3ccccc3C1=NO)C(=O)N2 [Example 28, 5-amino-indirubin-3′-monooxime] |
| 6 ± 0.9 µM | 80 ± 5% | 84 ± 4% | 0.12 ± 0.03 μg/mg protein | 20 ± 4% | 0.15 ± 0.04 μg/mg protein | 16 ± 3% | 6 ± 0.8 µM | 90 ± 8% | 0.18 ± 0.06 μg/mg protein | 10 ± 4% | Cc1ccc2c(c1)C(=C1Nc3ccccc3C1=NO)C(=O)N2 [Example 25, 5-methyl-indirubin-3′-monooxime] |
| 3.5 ± 0.6 µM | 87 ± 7% | 95 ± 6% | 0.20 ± 0.05 μg/mg protein | 13 ± 3% | 0.25 ± 0.04 μg/mg protein | 5 ± 1% | 21 ± 1.5 µM | – | – | – | 3-{3′-[iminooxy-O-(2-D-glucopyranosylethyl)]-(2′H3′H)indol-2′-ylidene}-(2H3H)indol-2-one [Example 48] |
| 5 ± 0.5 µM | 85 ± 4% | 94 ± 4% | 0.25 ± 0.04 μg/mg protein | 15 ± 2% | 0.29 ± 0.05 μg/mg protein | 6 ± 1% | 8 ± 0.7 µM | – | – | – | Nc1ccc2c(c1)C(=C1Nc3ccccc3C1=O)C(=O)N2 [Example 15, 5-amino-indirubin] |
| 3 ± 0.9 µM | – | – | – | – | – | – | 4.5 ± 0.8 µM | – | – | – | indirubin-5-sulfonic acid-(morpholin-4-yl-amide) [Example 23] |
| 3.5 ± 0.4 µM | – | – | – | – | – | – | 4 ± 0.3 µM | – | – | – | NCCNc1ccc2c(c1)C(=C1Nc3ccccc3C1=O)C(=O)N2 [Example 20, 5-(2-amino-ethyl)-amino-indirubin] |
| 4 ± 0.6 µM | – | – | – | – | – | – | 3.5 ± 0.7 µM | – | – | – | NCCNC(=O)Cc1ccc2c(c1)C(=C1Nc3ccccc3C1=O)C(=O)N2 [Example 8, N-(2-amino-ethyl)-2-[3-(3′-oxo-(2′H3′H)indol-2′-ylidene)-(2H3H)indol-2-one-5-yl]-acetamide] |
| 5 ± 0.6 µM | – | – | – | – | – | – | 7 ± 0.7 µM | – | – | – | CC(N)C(=O)Nc1ccc2c(c1)C(=C1Nc3ccccc3C1=O)C(=O)N2 (centres unmarked) [Example 19, 2-amino-N-[3-(3′-oxo-(2′H3′H)indol-2′-ylidene)-(2H3H)indol-2-one-5-yl]-propionamide] |
| 5 ± 0.9 µM | – | – | – | – | – | – | 5.5 ± 0.6 µM | – | – | – | CC(C)c1ccc2c(c1)C(=C1Nc3ccccc3C1=NO)C(=O)N2 [Example 27, 5-isopropyl-indirubin-3′-monooxime] |
| 6 ± 0.7 µM | – | – | – | – | – | – | 6 ± 0.8 µM | – | – | – | NCC(=O)Nc1ccc2c(c1)C(=C1Nc3ccccc3C1=NO)C(=O)N2 [Example 30, 2-amino-N-[3-(3′-hydroxyimino-(2H3H)indol-2′-ylidene)-(2H3H)-indol-2-one-5-yl]-acetamide] |
